Experiments:
[1] = test system: dopamine level in the rat brain; conditions: according to U.S. Patent Application No. 2003/0032579; cited from earlier work
[2] = test system: haloperidol-induced catalepsy; conditions: rat; according to U.S. Patent Application No. 2003/0032579; cited from earlier work
[3] = test system: apomorphine-induced stereotypy; conditions: rats; according to U.S. Patent Application No. 2003/0032579; cited from earlier work
[4] = molecular target: T1, Human PDE10 (Homo sapiens, UniProt Q9Y233); assay: Human PDE10 inhibitory effect (IMAP TR-FRET enzyme inhibition assay); type: biochemical; conditions: PDE10 inhibitory activity, cAMP substrate
T1 construct: purchased BPA Bioscience (so in the source)
Procedure, shortened: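 Human PDE10 solution (2 ng/mL) was preincubated with compound for 5 min at room temperature in Tris-HCl pH 7.2, 10 mM MgCl2 and 0.1% BSA. cAMP substrate solution (400 nM) was then added for 60 min, followed by IMAP TR-FRET binding for ≥3 h. The 5′-AMP formed was read at ex 340 nm and em 490/520 nm, with solvent wells set at 0% and no-enzyme wells at 100%; IC50 was derived.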

T1 sequence (Q9Y233 whole entry): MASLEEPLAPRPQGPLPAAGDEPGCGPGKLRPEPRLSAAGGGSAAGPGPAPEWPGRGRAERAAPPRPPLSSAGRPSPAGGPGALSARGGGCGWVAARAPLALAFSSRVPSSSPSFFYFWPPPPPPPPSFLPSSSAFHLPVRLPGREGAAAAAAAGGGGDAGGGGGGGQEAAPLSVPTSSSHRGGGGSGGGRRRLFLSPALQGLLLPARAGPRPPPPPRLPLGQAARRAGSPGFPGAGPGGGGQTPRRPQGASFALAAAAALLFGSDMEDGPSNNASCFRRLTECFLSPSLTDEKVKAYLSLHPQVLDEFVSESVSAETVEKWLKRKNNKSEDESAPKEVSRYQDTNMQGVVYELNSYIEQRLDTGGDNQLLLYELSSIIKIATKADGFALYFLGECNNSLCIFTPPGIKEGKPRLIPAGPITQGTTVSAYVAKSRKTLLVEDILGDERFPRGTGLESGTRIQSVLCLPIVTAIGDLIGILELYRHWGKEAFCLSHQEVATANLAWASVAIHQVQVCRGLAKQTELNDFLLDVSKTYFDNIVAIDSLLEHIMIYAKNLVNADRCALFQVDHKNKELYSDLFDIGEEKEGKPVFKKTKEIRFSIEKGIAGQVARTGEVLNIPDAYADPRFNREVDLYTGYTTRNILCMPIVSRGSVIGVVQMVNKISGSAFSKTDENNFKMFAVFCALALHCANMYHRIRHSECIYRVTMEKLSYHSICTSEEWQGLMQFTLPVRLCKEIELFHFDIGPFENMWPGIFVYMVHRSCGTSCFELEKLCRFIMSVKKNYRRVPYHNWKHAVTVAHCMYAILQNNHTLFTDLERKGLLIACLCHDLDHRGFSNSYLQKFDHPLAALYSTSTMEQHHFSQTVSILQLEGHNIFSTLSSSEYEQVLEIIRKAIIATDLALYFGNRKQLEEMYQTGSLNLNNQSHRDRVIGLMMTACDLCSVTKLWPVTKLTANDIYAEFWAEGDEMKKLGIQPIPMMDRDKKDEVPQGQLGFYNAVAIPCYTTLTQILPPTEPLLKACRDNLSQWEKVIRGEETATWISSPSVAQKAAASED

| SMILES | IC50 [4] [nM] | also measured |
| --- | --- | --- |
| COc1ccc(Cc2nccc3cc(OC)c(OC)cc23)cc1OC [papaverine] | – | dopamine level in the rat brain [1]: decreases; haloperidol-induced catalepsy [2]: increases; apomorphine-induced stereotypy [3]: decreases |
| Cn1ncc(-c2nc(C(F)F)c(Cl)s2)c1C(=O)NC1CCn2nc(-c3cccc(F)c3)nc2C1 (centres unmarked) [Example 5.37, 4-(5-chloro-4-(difluoromethyl)thiazol-2-yl)-N-(2-(3-fluorophenyl)-5,6,7,8-tetrahydro-[1,2,4]triazolo[1,5-a]pyridin-7-yl)-1-methyl-1H-pyrazole-5-carboxamide] | 5 to 100 | – |
| Cc1ccnc(-c2cnn(C)c2C(=O)NC2CCn3cc(-c4ccccc4)nc3C2)n1 (centres unmarked) [Example 2.16, 1-methyl-4-(4-methylpyrimidin-2-yl)-N-(2-phenyl-5,6,7,8-tetrahydroimidazo[1,2-a]pyridin-7-yl)-1H-pyrazole-5-carboxamide] | 5 to 100 | – |
| Cc1cnc(-c2cnn(C)c2C(=O)Nc2cc3nc(-c4ccccc4)nn3cc2F)cn1 [Example 3.2, N-(6-fluoro-2-phenyl-[1,2,4]triazolo[1,5-a]pyridin-7-yl)-1-methyl-4-(5-methylpyrazin-2-yl)-1H-pyrazole-5-carboxamide] | < 5 | – |
| Cn1ncc(-c2nc(C(F)(F)F)cs2)c1C(=O)NC1CCn2nc(-c3ccccc3)nc2C1 (centres unmarked) [Example 5.9] | 5 to 100 | – |
| Cc1ccnc(-c2cnn(C)c2C(=O)NC2CCn3cc(-c4cccc(F)c4)nc3C2)n1 (centres unmarked) [Example 2.23, N-(2-(3-fluorophenyl)-5,6,7,8-tetrahydroimidazo[1,2-a]pyridin-7-yl)-1-methyl-4-(4-methylpyrimidin-2-yl)-1H-pyrazole-5-carboxamide] | 5 to 100 | – |
| Cn1ncc(-c2ncccc2C#N)c1C(=O)NC1CCn2nc(-c3ccccc3)nc2C1 (centres unmarked) [Example 5.27, 4-(3-cyanopyridin-2-yl)-1-methyl-N-(2-phenyl-5,6,7,8-tetrahydro-[1,2,4]triazolo[1,5-a]pyridin-7-yl)-1H-pyrazole-5-carboxamide] | 5 to 100 | – |
| Cc1nsc(-c2cnn(C)c2C(=O)NC2CCn3nc(-c4ccccc4)nc3C2)n1 (centres unmarked) [Example 5.15, 1-methyl-4-(3-methyl-1,2,4-thiadiazol-5-yl)-N-(2-phenyl-5,6,7,8-tetrahydro-[1,2,4]triazolo[1,5-a]pyridin-7-yl)-1H-pyrazole-5-carboxamide] | 5 to 100 | – |
| Cc1cccc(-c2cnn(C)c2C(=O)NC2CCn3nc(N4CCCC4)nc3C2)n1 (centres unmarked) [Example 5.47, 1-methyl-4-(6-methylpyridin-2-yl)-N-(2-(pyrrolidin-1-yl)-5,6,7,8-tetrahydro-[1,2,4]triazolo[1,5-a]pyridin-7-yl)-1H-pyrazole-5-carboxamide] | 5 to 100 | – |
| Cn1ncc(-c2nc(C#N)cs2)c1C(=O)NC1CCn2nc(-c3ccccc3)nc2C1 (centres unmarked) [Example 5.10, 4-(4-cyanothiazol-2-yl)-1-methyl-N-(2-phenyl-5,6,7,8-tetrahydro-[1,2,4]triazolo[1,5-a]pyridin-7-yl)-1H-pyrazole-5-carboxamide] | 5 to 100 | – |
| Cn1ncc(-c2cccc(C#N)n2)c1C(=O)NC1CCn2nc(-c3ccccc3)nc2C1 (centres unmarked) [Example 5.40, 4-(6-cyanopyridin-2-yl)-1-methyl-N-(2-phenyl-5,6,7,8-tetrahydro-[1,2,4]triazolo[1,5-a]pyridin-7-yl)-1H-pyrazole-5-carboxamide] | 5 to 100 | – |
| Cc1csc(-c2cnn(C)c2C(=O)NC2CCn3nc(-c4ccccc4)nc3C2)n1 (centres unmarked) [Example 5.18, 1-methyl-4-(4-methylthiazol-2-yl)-N-(2-phenyl-5,6,7,8-tetrahydro-[1,2,4]triazolo[1,5-a]pyridin-7-yl)-1H-pyrazole-5-carboxamide] | 5 to 100 | – |
| COc1ccccc1-c1nc2cc(NC(=O)c3c(-c4nc(C(F)F)c(Cl)s4)cnn3C)cc(Cl)n2n1 [Example 3.21, N-(5-chloro-2-(2-methoxyphenyl)-[1,2,4]triazolo[1,5-a]pyridin-7-yl)-4-(5-chloro-4-(difluoromethyl)thiazol-2-yl)-1-methy 1-1H-pyrazole-5-carboxamide] | 5 to 100 | – |
| Cn1ncc(-c2nc(C(C)(C)C)cs2)c1C(=O)NC1CCn2cc(-c3ccccc3)nc2C1 (centres unmarked) [Example 2.27, 4-(4-(tert-butyl)thiazol-2-yl)-1-methyl-N-(2-phenyl-5,6,7,8-tetrahydroimidazo[1,2-a]pyridin-7-yl)-1H-pyrazole-5-carboxamide] | 5 to 100 | – |
| Cn1ncc(-c2nc(C(F)F)c(C3CC3)s2)c1C(=O)NC1CCn2nc(-c3ccccc3)nc2C1 (centres unmarked) [Example 5.8, 4-(5-cyclopropyl-4-(difluoromethyl)thylthiazol-2-yl)-1-methyl-N-(2-phenyl-5,6,7,8-tetrahydro-[1,2,4]triazolo[1,5-a]pyridin-7-yl)-1H-pyrazole-5-carboxamide] | 5 to 100 | – |

From patent US8980888B2, “Pyrazole derivative” (Mochida Pharmaceutical Co., Ltd., priority 2013, dated 2015)
